# Results as given in patent US11033544B2, “Low-dose triple combination formulation” (THE GEORGE INSTITUTE FOR GLOBAL HEALTH, priority 2019, dated 2021).
# “Also recorded” adds a separate entry of the source.
# Key:
# Format in all cases: in vivo
# [1] = tested on: Zucker Diabetic Fatty (ZDF) rats; experiment: Whole blood glucose in the Zucker rat model of diet induced diabetes, 21 days of treatment
# Text: (§1) Study Design: • Zucker rat model of diet induced diabetes (Zucker Diabetic Fatty Rats) • Parallel randomized study • 10 animals in each of 4 treatment groups • 21 days of treatment
# (§2) Main Study Outcomes: • Glucose (measured at multiple time points before and during treatment) • HbA1c (before and at the end of the treatment period) • Insulin (before and at the end of the treatment period) • Creatinine (before and at the end of the treatment period)
# (§3) Ten Zucker Diabetic Fatty (ZDF) rats were randomly allocated to each of the four different treatment groups (Table 6). Whole blood glucose measurements were made from 4 days before dosing, then daily until for 8 days, then at reduced frequency. Measurements of HbA1c and creatinine were made the day prior to dosing, then at days 9 and 21. Insulin measurements were made the day prior to dosing then on day 20. A clinical chemistry sample from one animal in the vehicle group on day 9 was not available so there is a missing measurement for creatinine and HbA1c on that day
# (§4) Whole blood glucose, HbA1c and Creatinine were each analyzed using a linear mixed mode (proc mixed in SAS/STAT 14.2). For WBC, unstructured, autoregressive, exchangeable and Toeplitz correlation structures for repeated measurements across the study were compared using Akaike Information Criterion and Bayesian Information Criterion. The Toeplitz correlation structure was selected as the best fitting structure. For HbA1c and Creatinine an exchangeable structure was used as there were only two measurements. Denominator degrees of freedom were calculated using the between-within subject method. The model included coefficients for baseline measurement (the closest measurement preceding dosing), type of drug treatment, time and an interaction between drug treatment and time. Marginal means (with 95% confidence intervals) for the measurement at each period for each drug were estimated, and an overall marginal mean (with 95% confidence interval) for measurements across time was estimated using weights that reflect the differing amounts of time in each measurement period (assuming each measurement represented all time since the preceding measurement). A likelihood ratio test of overall differences between treatment was initially used, if significant (p<0.05) then we tested for differences between each combination of treatments.
# (§5) To test for robustness of the linear mixed model and ANCOVA models a bootstrapped 95% CI (percentile method) for the weighted marginal mean of measurements across the entire study period or single outcome measurement using 2000 replicates was estimated. The bootstrap sampling was done on individual animal (using complete measurements), with stratification by treatment type.
# [2] = tested on: Zucker Diabetic Fatty (ZDF) rats; experiment: Plasma insulin in the Zucker rat model of diet induced diabetes, 21 days of treatment
# Text: as §1, §2, §3
# For Insulin, a baseline measure and a measurement at day 20 was available, so the ANCOVA approach (linear regression with the baseline value as a covariate) was used to test for differences in this measurement between treatments. The interaction between baseline value and treatment was tested but there was no evidence of an interaction, therefore the main effects were retained.
# as §5
# [3] = tested on: Zucker Diabetic Fatty (ZDF) rats; experiment: HbA1c in the Zucker rat model of diet induced diabetes, 21 days of treatment
# Text: as §1, §2, §3, §4, §5
# [4] = tested on: Zucker Diabetic Fatty (ZDF) rats; experiment: Serum creatinine in the Zucker rat model of diet induced diabetes, 21 days of treatment
# Text: as §1, §2, §3, §4, §5
# [5] = whole study period, bootstrapped 95% CI, 2000 replicates
compound,measurement,setting,value
"CN(C)C(=N)N=C(N)N [Composition 1K-MET, Metformin]",WBG relative to the control group,[1]; 21 days of treatment,essentially no difference
same,"Whole blood glucose, pairwise comparison Vehicle vs treatment, Estimate (95% CI)","[1]; days 1-21, difference = treatment minus vehicle",24.4 (−5.2-53.9) mg/dL
same,"Overall level in WBG after dosing, Estimate (95% CI)","[1]; non-fasting whole blood glucose, time-weighted marginal mean over days 1-21 post-dosing, linear mixed model",442.7 (421.8-463.5) mg/dL
same,"Whole blood glucose, bootstrap median and confidence interval",[1]; [5],443.4 (419.8-465.0) mg/dL
same,Insulin levels relative to the control group / vehicle,[2]; day 20,no evidence of a difference; also recorded: essentially no difference
same,"Insulin, Overall level in WBG after dosing, Estimate (95% CI)","[2]; day 20, ANCOVA with baseline as covariate",3879 (2757-5001) pg/mL
same,"Insulin, bootstrap median and confidence interval","[2]; day 20, bootstrapped 95% CI, 2000 replicates",3867 (2914-4874) pg/m
same,"Insulin, pairwise comparison Vehicle vs treatment, Estimate (95% CI)","[2]; day 20, difference = treatment minus vehicle",932 (−660-2524) pg/mL
same,HbA1c relative to the control group,[3]; 21 days of treatment,essentially no difference
same,"HbA1c, pairwise comparison Vehicle vs treatment, Estimate (95% CI)","[3]; days 9 and 21, difference = treatment minus vehicle",−0.35 (−0.68-−0.01) %
same,"HbA1c, overall level after dosing, estimate (95% CI)","[3]; measurements at days 9 and 21, marginal mean, linear mixed model",6.52 (6.29-6.75) %
same,"HbA1c, bootstrap median and confidence interval",[3]; [5],6.53 (6.24-6.82) %
same,Creatinine relative to the control group,[4]; 21 days of treatment,essentially no difference
same,"Creatinine, pairwise comparison Vehicle vs treatment, Estimate (95% CI)","[4]; serum, days 9 and 21, difference = treatment minus vehicle",0.01 (−0.01-0.03) mg/dL
same,"Creatinine, Overall level in WBG after dosing, Estimate (95% CI)","[4]; serum, days 9 and 21, marginal mean, linear mixed model",0.79 (0.77-0.80) mg/dL
same,"Creatinine, bootstrap median and confidence interval",[4]; [5],0.79 (0.77-0.80) mg/dL
